Source: publication PMC8692498, “Synthesis and multifaceted pharmacological activity of novel quinazoline NHE-1 inhibitors” (Scientific Reports, 2021)

Target: T1, NHE-1 (Oryctolagus cuniculus, UniProt P23791)
T1 construct: endogenous in cells; host or cells: rabbit platelets in platelet-rich plasma (male rabbits)
Experiment: NHE-1 inhibition assay on rabbit platelets (platelet shape change after acidification with sodium propionate, laser aggregometer)
Assay type: cell-based
Description: Evaluation of NHE-1 inhibition was carried out on rabbit platelets by the known method[39],[40]. The experiments were carried out on 15 male rabbits weighing 3.0-4.0 kg. Platelet-rich plasma (PRP) was obtained by centrifuging blood with 3.8% sodium citrate (1:10) at 1000 rpm for 12 min (Multi centrifuge CM 6M, Latvia). Platelet shapeshifting due to acidification was followed with a laser aggregometer BIOLA-220 LA (Russia). Test compounds (10 μl, 10 nM final concentration) were added to 200 μl of PRP 5 min in a cuvette before the addition of sodium propionate solution, incubated with constant stirring using a magnetic stirrer (800 rpm, 37 °C). To control samples for NHE-1 activation, a buffer solution containing sodium propionate was added to 200 μL of PRP (600 μL, 135 mM sodium propionate, 20 mM HEPES, 1 mM CaCI2, 1 mM MgCI2, 10 mM glucose; pH 6.7). The change in light transmission at pH 7.4, 37 °C was monitored in a Krebs solution (600 μL, 120 mM NaCl, 4.8 mM KCl, 1.2 mM KH2PO4, 2.5 mM MgSO4, 25 mM NaHCO3, 2.6 mM CaCl2, 5.4 mM glucose; pH 7.4). Test compounds were added to a final concentration of 10 nM to the cuvette into 200 μl of PRP 5 min before adding the sodium propionate solution, incubated with constant stirring using a magnetic stirrer (800 rpm, 37 °C). NHE-1 inhibitors zoniporide, rimeporide, amiloride were used as reference drugs. Assays were run in 6 independent series.

T1 sequence (P23791 whole entry): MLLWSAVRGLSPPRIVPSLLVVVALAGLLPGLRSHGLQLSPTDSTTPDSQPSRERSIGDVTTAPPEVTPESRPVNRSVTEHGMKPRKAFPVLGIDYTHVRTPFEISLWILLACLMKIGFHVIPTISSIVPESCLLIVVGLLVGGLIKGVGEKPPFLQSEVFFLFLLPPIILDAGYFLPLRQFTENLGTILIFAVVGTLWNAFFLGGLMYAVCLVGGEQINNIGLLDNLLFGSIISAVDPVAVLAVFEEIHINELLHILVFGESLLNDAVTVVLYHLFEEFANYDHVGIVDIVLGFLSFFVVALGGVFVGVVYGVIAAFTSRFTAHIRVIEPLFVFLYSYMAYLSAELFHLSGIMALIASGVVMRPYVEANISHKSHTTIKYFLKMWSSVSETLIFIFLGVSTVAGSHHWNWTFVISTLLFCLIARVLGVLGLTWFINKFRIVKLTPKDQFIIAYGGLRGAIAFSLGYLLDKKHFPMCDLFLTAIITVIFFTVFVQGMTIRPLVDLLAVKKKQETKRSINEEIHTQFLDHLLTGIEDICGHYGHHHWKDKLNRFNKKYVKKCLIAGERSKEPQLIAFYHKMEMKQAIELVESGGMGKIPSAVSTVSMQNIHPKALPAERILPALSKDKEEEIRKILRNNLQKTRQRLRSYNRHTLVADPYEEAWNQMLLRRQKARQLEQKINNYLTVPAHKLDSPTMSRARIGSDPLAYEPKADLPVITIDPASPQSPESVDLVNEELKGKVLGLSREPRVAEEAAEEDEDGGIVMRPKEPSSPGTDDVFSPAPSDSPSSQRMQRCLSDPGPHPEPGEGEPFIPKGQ

## Cn1c(=O)n(Cc2nnc(N)[nH]2)c(=O)c2ccccc21 [Compound 3e, 3-[(5-Amino-4H-1,2,4-triazol-3-yl)methyl]-1-methylquinazoline-2,4(1H,3H)-dione]
10 nM, rabbit platelet-rich plasma, decimal commas, read-out: NHE-1 inhibition at 10 nM, m ± SD, n = 6 (%)
  inhibition at 0.01 µM: 57.8%
Compared with reference drugs
  NHE-1 inhibitory activity (in words): more potent and comparable to zoniporide
